From patent US10253039B2, “Inhibitors of bacterial DNA gyrase with efficacy against gram-negative bacteria” (priority 2014, dated 2019)
In brackets after ≈: the same amount, converted by molar mass.

Legend:
Assay type in all cases: cell-based
E. coli BW25113 = test: MIC, microdilution in 96-well plates; settings: Escherichia coli, BW25113, E. coli BW25113; read-out: MIC
Procedure, shortened: (§1)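 Growth inhibition was scored after overnight culture (16-18 hours, 37° C., shaking) by looking for turbidity; the first clear well in a triplicate 2-fold compound series defined the MIC. Strains were inoculated at 1:10000 into LB.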

Edwardsiella tarda = test: MIC, microdilution in 96-well plates
Procedure, shortened: as §1

E. coli JW5503 (deltolC) = test: MIC, 20-strain panel; settings: Escherichia coli, E. coli JW5503 (deltolC)
Procedure, shortened: as §1

Shigella flexneri = test: MIC, 20-strain panel
Procedure, shortened: as §1

[1] = test system: Klebsiella pneumoniae subsp. pneumoniae; test: MIC, 20-strain panel; settings: Klebsiella pneumoniae subsp. pneumoniae
Procedure, shortened: as §1

Streptococcus pyogenes = test: MIC, 20-strain panel
Procedure, shortened: as §1

[2] = test system: Salmonella enterica subsp. enterica typhimurium; test: MIC, 20-strain panel; settings: Salmonella enterica subsp. enterica Typhimurium
Procedure, shortened: as §1

[3] = test system: Staphylococcus aureus subsp. aureus; test: MIC, 20-strain panel; settings: Staphylococcus aureus subsp. aureus, read-out: MIC
Procedure, shortened: as §1

[4] = test system: Staphylococcus epidermidis; test: MIC, 20-strain panel
Procedure, shortened: as §1

E. coli MG1655 = test: MIC, 20-strain panel; settings: Escherichia coli, MG1655, E. coli MG1655; read-out: MIC
Procedure, shortened: as §1

[5] = test system: Staphylococcus saprophyticus subsp. saprophyticus; test: MIC, 20-strain panel
Procedure, shortened: as §1

Streptococcus agalactiae = test: MIC, 20-strain panel
Procedure, shortened: as §1

Compound | MIC (E. coli BW25113) [µg/mL] | MIC (Edwardsiella tarda) [µg/mL] | MIC (E. coli JW5503 (deltolC)) [µg/mL] | MIC (Shigella flexneri) [µg/mL] | MIC [1] [µg/mL] | MIC (Streptococcus pyogenes) [µg/mL] | MIC [2] [µg/mL] | MIC [3] [µg/mL] | MIC [4] [µg/mL] | MIC (E. coli MG1655) [µg/mL] | MIC [5] [µg/mL] | MIC (Streptococcus agalactiae) [µg/mL]
Cc1ccncc1S(=O)(=O)N[C@@H]1CCN(Cc2ccc(OC3CC3)cc2)C1 [Compound 153] | > 8 | > 8 | 8 (≈ 20.6 µM) | > 8 | > 8 | > 8 | > 8 | > 8 | > 8 | > 8 | > 8 | > 8
O=S(=O)(N[C@@H]1CCN(Cc2ccc(OC3CC3)cc2)C1)c1cncc(F)c1 [Compound 154] | > 8 | > 8 | > 8 | > 8 | > 8 | > 8 | > 8 | > 8 | > 8 | > 8 | > 8 | > 8
COc1cc(CN2CC[C@@H](NS(=O)(=O)c3cccc(C#N)c3)C2)ccc1OC(C)C [Compound 155] | > 8 | > 8 | > 8 | > 8 | > 8 | > 8 | > 8 | > 8 | > 8 | > 8 | > 8 | > 8
Cc1nn(C)c2ncc(S(=O)(=O)N[C@@H]3CCN(Cc4ccc(OC5CC5)cc4)C3)cc12 [Compound 157] | > 8 | > 8 | > 8 | > 8 | > 8 | > 8 | > 8 | > 8 | > 8 | > 8 | > 8 | > 8
O=S(=O)(N[C@@H]1CCN(Cc2ccc(OC3CC3)cc2)C1)c1cnc2ccsc2c1 [Compound 158] | > 8 | > 8 | > 8 | > 8 | > 8 | > 8 | > 8 | > 8 | > 8 | > 8 | > 8 | > 8
N#Cc1ccc(S(=O)(=O)N[C@@H]2CCN(Cc3ccc(OC4CC4)cc3)C2)cn1 [Compound 159] | > 8 | > 8 | > 8 | > 8 | > 8 | > 8 | > 8 | > 8 | > 8 | > 8 | > 8 | > 8
N#Cc1ccc(S(=O)(=O)N[C@@H]2CCN(Cc3ccc(-c4ccccc4)cc3)C2)cn1 [Compound 160] | > 8 | > 8 | > 8 | > 8 | > 8 | > 8 | > 8 | > 8 | > 8 | > 8 | > 8 | > 8
Cc1ccc(S(=O)(=O)N[C@@H]2CCN(Cc3ccc(OC(C)C)cc3)C2)cc1C#N [Compound 161] | > 8 | > 8 | > 8 | > 8 | > 8 | > 8 | > 8 | > 8 | > 8 | > 8 | > 8 | > 8
Cc1ccc(S(=O)(=O)N[C@@H]2CCN(Cc3ccc(OC4CC4)cc3)C2)cc1C#N [Compound 162] | > 8 | > 8 | > 8 | > 8 | > 8 | > 8 | > 8 | > 8 | > 8 | > 8 | > 8 | > 8
O=S(=O)(N[C@@H]1CCN(Cc2ccn(-c3ccccc3)n2)C1)c1cccc(OC(F)(F)F)c1 [Compound 163] | > 8 | > 8 | > 8 | > 8 | > 8 | > 8 | > 8 | > 8 | > 8 | > 8 | > 8 | > 8
CC(C)Oc1ccc(CN2CC[C@@H](NS(=O)(=O)c3cnc4ccsc4c3)C2)cc1 [Compound 164] | > 8 | > 8 | > 8 | > 8 | > 8 | > 8 | > 8 | > 8 | > 8 | > 8 | > 8 | > 8
CC(C)Oc1ccc(CN2CC[C@@H](NS(=O)(=O)c3ccc(F)c(C#N)c3)C2)cc1 [Compound 165] | > 8 | > 8 | 4 (≈ 9.58 µM) | > 8 | > 8 | > 8 | > 8 | > 8 | > 8 | > 8 | > 8 | > 8
N#Cc1cc(S(=O)(=O)N[C@@H]2CCN(Cc3ccc(OC4CC4)cc3)C2)ccc1F [Compound 166] | > 8 | > 8 | 2 (≈ 4.81 µM) | > 8 | > 8 | > 8 | ~8 (≈ 19.3 µM) | > 8 | > 8 | > 8 | > 8 | > 8
CC(C)Oc1ccc(CN2CC[C@@H](NS(=O)(=O)c3cccnc3)C2)cc1 [Compound 167] | > 8 | > 8 | > 8 | > 8 | > 8 | > 8 | > 8 | > 8 | > 8 | > 8 | > 8 | > 8
O=S(=O)(N[C@@H]1CCN(Cc2ccc(OC3CC3)cc2)C1)c1cc(C(F)(F)F)ccc1F [Compound 168] | > 8 | > 8 | 0.25 (≈ 0.545 µM) | ~8 (≈ 17.4 µM) | > 8 | > 8 | ~8 (≈ 17.4 µM) | > 8 | > 8 | > 8 | > 8 | > 8
O=S(=O)(N[C@@H]1CCN(Cc2ccc(OC3CC3)cc2)C1)c1cnccc1Cl [Compound 169] | > 8 | > 8 | > 8 | > 8 | > 8 | > 8 | > 8 | > 8 | > 8 | > 8 | > 8 | > 8
Cn1ccc(-c2ccc(CN3CC[C@@H](NS(=O)(=O)c4cccc(C#N)c4)C3)cc2)n1 [Compound 170] | > 8 | > 8 | 2 (≈ 4.74 µM) | > 8 | > 8 | > 8 | > 8 | > 8 | > 8 | > 8 | > 8 | > 8
Cn1ccc(-c2ccc(CN3CC[C@@H](NS(=O)(=O)c4cccc(C(F)(F)F)c4)C3)cc2)n1 [Compound 171] | > 8 | > 8 | 1 (≈ 2.15 µM) | > 8 | > 8 | > 8 | > 8 | > 8 | > 8 | > 8 | > 8 | > 8
